Measured values published in patent publication US20260224716A1, “PTH ANALOGS FOR THE TREATMENT OF HYPOPARATHYROIDISM” (priority 2020, published 2026).

Assays:
[1] = Plasma drug levels in rats, repeat daily dosing 7 days, LCMS (Example 13); assay type: in vivo, Sprague-Dawley rats
Procedure: Female Sprague-Dawley rats were single or double-housed and randomly assigned to four groups (n=5-6 per group) as described in Table 20, and then weighed.
After the treatment ceased, the animals were monitored on days 9 and 11 (washout period).
Body weight and food intake were measured on days 0, 1, 3, 5 and 7. Ca was measured on days 0, 1, 2, 3, 4, 7, 9 and 11. Pi was determined on the same samples, except for days 9 and 11.

serum calcium = test: Serum calcium in rats, repeat daily dosing 28 days (Example 14); assay type: in vivo, Sprague-Dawley rats
Procedure: Changes in body weight and food intake were also measured.
Body weight and food intake were measured on Day 0 (immediately prior to peptide administration), 1, 3, 7, 10, 14, 17, 21, 24, 28, 31, and 35. Serum Ca was measured at the start of the experiment and on Days 7, 14, 21, 28, 29, 30, 31, 32 and 34. Blood samples were collected via tail laceration for determination of total Ca in serum using commercially available colorimetric assays.

[2] = Pharmacokinetics in rats after single subcutaneous dose, LCMS (Example 10); conditions: rats
Source text: Female Sprague-Dawley rats were randomly distributed among four groups with five or six rats per group. […] Dose volume was based on body weight and recorded prior to dosing.

With `CC[C@H](C)[C@H](NC(=O)[C@H](CCC(=O)O)NC(=O)[C@H](CO)NC(=O)[C@@H](NC(=O)[C@H](CO)NC(=O)CN(C)C(=O)[C@H](N)CCCCNC(=O)CC[C@H](NC(=O)COCCOCCNC(=O)COCCOCCNC(=O)CC[C@H](NC(=O)CCCCCCCCCCCCCCCCC(=O)O)C(=O)O)C(=O)O)C(C)C)C(=O)N[C@@H](CCC(N)=O)C(=O)N[C@@H](CC(C)C)C(=O)N[C@@H](CCSC)C(=O)N[C@@H](Cc1c[nH]cn1)C(=O)N[C@@H](CC(N)=O)C(=O)N[C@@H](CC(C)C)C(=O)NCC(=O)N[C@@H](CCCCN)C(=O)N[C@@H](Cc1c[nH]cn1)C(=O)N[C@@H](CC(C)C)C(=O)N[C@@H](CC(N)=O)C(=O)N[C@@H](CO)C(=O)N[C@@H](CCSC)C(=O)N[C@@H](CCC(=O)O)C(=O)N[C@@H](CCCNC(=N)N)C(=O)N[C@H](C(=O)N[C@@H](CCC(=O)O)C(=O)N[C@@H](Cc1c[nH]c2ccccc12)C(=O)N[C@@H](CC(C)C)C(=O)N[C@@H](CCCNC(=N)N)C(=O)N[C@@H](CCCCN)C(=O)N[C@@H](CCCCN)C(=O)N[C@@H](CC(C)C)C(=O)N[C@@H](CCC(N)=O)C(=O)N[C@@H](CC(=O)O)C(=O)N[C@H](C(=O)N[C@@H](Cc1c[nH]cn1)C(=O)N[C@@H](CCCCNC(=O)CC[C@H](NC(=O)COCCOCCNC(=O)COCCOCCNC(=O)CC[C@H](NC(=O)CCCCCCCCCCCCCCCCC(=O)O)C(=O)O)C(=O)O)C(=O)O)C(C)C)C(C)C` [SEQ ID NO: 87] the “daily administrations to reach steady state plasma levels” value ([1]; daily SC dosing) was “four”, the “difference in total concentration of prodrug to drug” value ([1]; seven daily SC injections, FIGS. 19A, 19B) was 4 fold and the “absolute increase in serum Ca over the course of the study” value (“absolute increase in serum Ca” below) (serum calcium; 4 nmol/kg daily SC) was 1.356 mg/dL. The “percentage increase in serum Ca” value (serum calcium; 4 nmol/kg daily SC) was 14.7%, the “absolute increase in serum Ca” value (serum calcium; 8 nmol/kg daily SC) was 1.452 mg/dL and the “percentage increase in serum Ca” value (serum calcium; 8 nmol/kg daily SC) was 16.7%. The “absolute increase in serum Ca” value (serum calcium; 12 nmol/kg daily SC) was 2.072 mg/dL, the “percentage increase in serum Ca” value (serum calcium; 12 nmol/kg daily SC) was 23% and the “general health” value (serum calcium; 4, 8, 12 nmol/kg daily SC) was “All animals appeared healthy”. The “time of return to baseline value, prodrug” value ([2]; SEQ ID NO: 87 30 nmol/kg SC) was “one week” and the “tolerability” value ([2]; doses where prodrug and drug could be measured by LCMS) was “did not adversely affect the rats”.
